Measurements as given in PubChem BioAssay AID2823 (Broad Institute, 2010).
Activity calls are given as the source filed them. The rule behind the calls is not given here.

Biological target: RanGTP-importin-beta complex (human Ran / KPNB1)
Experiment: Ran–importin-beta interaction inhibitors, confirmation, biochemical, FRET, CFP/YFP, cell-free homogeneous (AID 2823)
Conditions: CFP-Ran/YFP-importin-beta FRET ratio

Compound | IC50
Cc1cccc(NC(=O)c2cc3c(s2)-c2c(C)cccc2OC3)n1 | 7.45 µM
O=C(NNC(=S)NC(=O)c1ccccc1[N+](=O)[O-])c1ccccc1O | > 50 µM (inactive)
Cc1cccc(NC(=O)c2cc(S(=O)(=O)N(C)c3ccc(F)cc3)ccc2Cl)n1 | > 50 µM (inactive)
CCCCOc1ccc(OCCSc2nc3ccccc3n2CC(=O)O)cc1 | > 50 µM (inactive)
CCOC(=O)c1ccc2[nH]cc(C(C)=O)c(=O)c2c1 | 12.6 µM
Cc1cc(O)ccc1NC1=CC(=O)CC(C)(C)C1 | > 50 µM (inactive)
COc1ccc(C(=O)/C=C(\C)NCc2ccc3c(c2)OCO3)cc1 | > 50 µM (inactive)
CCC(c1nnnn1C1CCCC1)N1CCC(C(N)=O)CC1 (stereo not given) | > 50 µM (inactive)
CC(C)S(=O)(=O)c1nsc2nc(=O)c(/C=C3\C=Nc4ccccc43)c(N)n12 | 7.97 µM
COC(=O)C(C)Oc1ccc2c(c1)O/C(=C\c1ccco1)C2=O (stereo not given) | 15.5 µM
COc1ccc(NC(=O)c2ccc3snnc3c2)cc1 | > 50 µM (inactive)
O=C(Cc1n[nH]c(=O)c2ccccc12)NCc1ccccn1 | > 50 µM (inactive)
O=C1CC(/C=C/c2ccco2)=Nc2ccccc2N1 | > 50 µM (inactive)
Cn1c(SCc2cccc([N+](=O)[O-])c2)nc2c(c1=O)SCC2 | > 50 µM (inactive)
CSc1sc(C)cc1C1C(C#N)=C(N)N(c2cccnc2)C2=C1C(=O)CCC2 (stereo not given) | 48 µM
O=C(CCN1CCC(c2ccc(Cl)s2)=N1)c1ccc(Cl)s1 | > 50 µM (inactive)
N#CC1=C(N)OC2=C(CCc3ccccc32)C1c1ccccc1 (stereo not given) | > 50 µM (inactive)
O=C(CCN1C(=O)COc2ccccc21)N1CCCCC1 | > 50 µM (inactive)
Cc1ccccc1/C=N/Nc1ccnc2cc(Cl)ccc12 | > 50 µM (inactive)
Cc1cc(NC(=O)c2c(F)c(F)c(F)c(F)c2F)no1 | > 50 µM (inactive)
O=C1C=C(Nc2ccc(Cl)cc2Cl)CC(c2ccco2)C1 (stereo not given) | > 50 µM (inactive)
Cc1c(C=O)cnn1CCC(=O)O | > 50 µM (inactive)
Cc1nc2[nH]c(=O)c3c(n2n1)NC1=C(C(=O)CC(C)(C)C1)C3c1ccccc1 (stereo not given) | 3.37 µM
COC(=O)c1ccc2nc(NC(=O)C(C)(C)C)sc2c1 | > 50 µM (inactive)
CC1Cc2cc(/C(O)=C3/C(=O)C(=O)N(Cc4ccncc4)C3c3ccc(N(C)C)cc3)ccc2O1 (stereo not given) | > 50 µM (inactive)

Compound | IC50
O=C(NNc1c2ccccc2nc2ccccc12)c1ccc(Cl)cc1 | > 50 µM (inactive)
CC(=O)Nc1cc(C(=O)N(C)Cc2ccco2)ccc1Sc1ccc(Cl)cc1 | > 50 µM (inactive)
Cn1c(=O)cc(OCCCC(=O)NCc2ccccn2)c2ccccc21 | > 50 µM (inactive)
CC(C)(C)CN1CCC(n2nccc2NC(=O)c2ccccc2Cl)CC1 | > 50 µM (inactive)
Oc1cccc(Nc2c3ccccc3nc3ccccc23)c1 | > 50 µM (inactive)
COc1ccccc1CNC(=O)COC(=O)Cc1ccc(Cl)cc1 | > 50 µM (inactive)
Cc1ccc(-c2cc3nc(-c4ccccc4)cc(N4CCC5(CC4)OCCO5)n3n2)cc1 | 44 µM
O=C(Oc1c(Br)cc(C(=S)N2CCOCC2)cc1Br)c1ccc(Cl)cc1 | > 50 µM (inactive)
O=C(CN1C2CCCC1CC(NC(=O)c1ccco1)C2)Nc1ccccc1C(F)(F)F (stereo not given) | > 50 µM (inactive)
C=CCOc1c(Br)cc(CNc2ccc(NC(=O)C(C)C)c(OC)c2)cc1OC | > 50 µM (inactive)
COc1cccc(C2=NOC(C(=O)Nc3cc(C)on3)C2)c1 (stereo not given) | > 50 µM (inactive)
CCN(C(=O)c1c(C)cc(=O)oc1C)c1ccc2c(c1)OCO2 | > 50 µM (inactive)
CCn1nc(NC(=O)c2ccncc2)c2cc3ccc(C)cc3nc21 | 46.4 µM
Cc1cc(Cl)c(S(=O)(=O)N2CCCC2)cc1OCC(=O)NC1CCCCC1 | > 50 µM (inactive)
CCOc1ccc(N2C(=O)C3C4C=CC(CC4)C3C2=O)c([N+](=O)[O-])c1 (stereo not given) | > 50 µM (inactive)
C=CCn1c(SCC(=O)Nc2sccc2C(N)=O)nc2ccccc2c1=O | > 50 µM (inactive)
CC(C)NC(=O)C1CC=CCC1C(=O)O (stereo not given) | > 50 µM (inactive)
COC(=O)[C@@H]1[C@H]2C[C@H]3c4[nH]c5ccccc5c4CCN3C[C@@H]2CC[C@@H]1O | > 50 µM (inactive)
CCN(CC)Cc1c(CC(C)C)oc(C)c1C(=O)O | > 50 µM (inactive)
COc1cccc(C(=O)c2cc3ccc(O)cc3oc2=O)c1 | 26.9 µM
COc1ccc(-n2cnc3cc(NCc4cccs4)ccc32)cc1 | > 50 µM (inactive)
Cc1cccn2c(=O)c(/C=C(\C#N)C(=O)NC3CCS(=O)(=O)C3)c(Oc3ccc(F)cc3)nc12 (stereo not given) | 15.6 µM
COC(=O)C1=CN(Cc2cccs2)C=C(C(=O)OC)C1c1ccc(OC)cc1OC | 6.08 µM
CCOC(=O)CC(=O)CSc1nc2c(cc1C#N)CCC2 | 29.2 µM
CC(C)Cc1ccc(CN2CCC(n3nccc3NC(=O)C3CCCC3)CC2)cc1 | > 50 µM (inactive)

Compound | IC50
CCN(CC)S(=O)(=O)c1cc(C(=O)Nc2ccccc2[N+](=O)[O-])ccc1Cl | > 50 µM (inactive)
Cc1ccc(N=Cc2cc3c(cc2O)OC(N)=C(C#N)C3c2ccccc2)cc1 (stereo not given) | > 50 µM (inactive)
Nc1c(C(=O)NCc2ccccc2)c2nc3ccccc3nc2n1-c1ccc2c(c1)OCO2 | 15.2 µM
Cc1c(O)ccc2c3c(c(=O)oc12)CCC(C)C3 (stereo not given) | 11.9 µM
CSc1nc(NCC(C)C)c2c3c(sc2n1)CN(C)CC3 | 44.2 µM
Cc1ccc2cc(C#N)c(NCCNC(=O)C3CCC3)nc2c1C | > 50 µM (inactive)
CC(=O)Oc1cc2oc(=O)cc(C)c2cc1OC(C)=O | 24.7 µM
COCCNC(=O)/C(C#N)=C/c1cn(CC(=O)NCc2ccco2)c2ccccc12 | 40.4 µM
Cn1c(SCc2ccccc2F)nnc1-c1ccccn1 | > 50 µM (inactive)
O=C1CCCN2N=C(SCC(=O)N3N=C(c4ccc(Br)cc4)CC3c3ccc(F)cc3)SC2=N1 (stereo not given) | > 50 µM (inactive)
CCN1CCN(Cc2ccc(NC(=O)c3ccc(C)c(/C=C/c4cnc(Nc5cc(N6CCNCC6)nc(C)n5)cn4)c3)cc2C(F)(F)F)CC1 | 19.5 µM
CCOC(=O)/C=C1\SCC(=O)N1CC(=O)c1ccc[nH]1 | > 50 µM (inactive)
O=C(Nc1nc2ccc(S(=O)(=O)N3CCCCC3)cc2s1)c1cccnc1 | > 50 µM (inactive)
Cc1nc2nc(CCNS(=O)(=O)c3ccc(Cl)cc3)cn2nc1C | 41.2 µM
OCCN1CCN(c2nc(-c3ccccc3)c3cc(Cl)ccc3n2)CC1 | 22.2 µM
COc1ccc(C2NC(C(=O)O)Cc3c2[nH]c2ccccc32)cc1CN1CCN(c2ccc(F)cc2)CC1 (stereo not given) | 7.68 µM
CC1C2(C)OC(=N)C(C#N)(C(C)O2)C1(C#N)C#N (stereo not given) | 44.2 µM
COc1ccccc1N1CCN(C(=O)/C=C/c2ccc(C)cc2)CC1 | > 50 µM (inactive)
COCCOC(=O)C1=C(C)NC(=O)NC1c1cccc2ccccc12 (stereo not given) | > 50 µM (inactive)
N#CC1=C(N)SC(N)=C(C#N)C1c1cccc(Oc2ccccc2)c1 | > 50 µM (inactive)
O=C(Nc1ccccc1-c1ccccc1)c1cccs1 | > 50 µM (inactive)
O=C(Nc1ccnc(-c2ccncc2)n1)c1ccc(Cl)cc1 | > 50 µM (inactive)
CCCOC(=O)CSC1=C(C#N)C(c2ccccc2OCC)C(C#N)C(=O)N1 (stereo not given) | > 50 µM (inactive)
O=c1cn[nH]c2ccccc12 | > 50 µM (inactive)
N#C/C(=C\c1ccc(N2CCOCC2)o1)C(=O)N1CCOCC1 | 4.66 µM
